Columns and labels:
[1] = tested on: U46619-induced bronchoconstriction; assay: Bronchodilatation in vivo: inhibition of U46619-induced bronchoconstriction in anaesthetised guinea-pigs; set-up: species or system guinea-pig (Dunkin Hartley); details: Cavia porcellus, iv; i.v. bolus; U46619 infused i.v. at 2.5 nmol/min; range over the listed Examples; read-out: BD50 (dose of compound required to reduce the U46619-induced bronchoconstriction by 50%)
Experimental: Male guinea-pigs of the Dunkin Hartley strain (500-600 g) were anaesthetised with Sagatal (pentobarbital sodium) (60 mg/kg). Airway resistance was measured using a modification of the classical Konzett-Rossler technique (J. Pharm. Methods, 13, 309-315, 1985). U46619 (9,11-methanoepoxy-PGH2) was infused i.v. at a rate of 2.5 nmol/min, this produced a steady state of bronchoconstriction (approximately 120% increase from basal airway resistance). The compound under test was administered by i.v. bolus injection, and the subsequent peak inhibition of bronchoconstriction recorded.
The dose of compound required to reduce the U46619-induced bronchoconstriction by 50% is given as the BD50. The compounds of Examples 2, 3, 6, 11, 14 and 15 had BD50 values in the range 0.58-7.24 μmol/kg.

[2] = target: calmodulin insensitive cyclic GMP phosphodiesterase (Homo sapiens, UniProt O76074); assay: Inhibition of calmodulin insensitive cyclic GMP phosphodiesterase; type: biochemical; details: procedure of European Patent Application No. 293063; range over the listed Examples; read-out: IC50 (concentration of inhibitor required for 50% inhibition of enzyme activity)
Experimental: The activity of the compounds of the present invention as inhibitors of a calmodulin insensitive cyclic GMP phosphodiesterase was measured using the procedure described in European Patent Application No. 293063. […] The compounds of the present invention have the advantage that the are selective in not inhibiting cyclic AMP phosphodiesterase (type III)

[3] = tested on: ovalbumen antigen challenge bronchoconstrictor response; assay: Anti-allergic activity: inhibition of ovalbumen-induced bronchoconstrictor response in sensitised guinea-pigs; type: in vivo, guinea-pig (Duncan Hartley); details: ovalbumen 1 mg/kg i.v.
Experimental: Male Duncan Hartley guinea-pigs (250-300 g) were sensitised to ovalbumen by i.p. injection of 2 ml of 50mg.ml^-1 i.p. and 0.2 ml s.c. Three weeks later they were anaesthetised with 60 mg.kg^-1 sodium pentobarbitone. The trachea was cannulated and the animal respired at a rate of 40 breaths per minute and at an initial tracheal inflation pressure of 16 mmHg. Tracheal inflation pressure was measured by a transducer connected to a side arm of the respiration circuit. The carotid artery was cannulated for the measurement of blood pressure and the signal was used to trigger an instantaneous rate meter. A jugular vein was cannulated for the administration of drug and allergen. After surgery the animals were allowed to stabilise and the drug was administered i.v. as a bolus. Following this, ovalbumen 1 mg.kg^-1 was injected i.v. as the antigen challenge either 2, 15 or 30 minutes following drug treatment and the peak bronchoconstrictor response recorded. For the control group ovalbumen only was given. One ovalbumen challenge per guinea-pig was used and n=6 for each time point. The percentage increase in tracheal inflation pressure was calculated. The following results indicating an anti-allergic activity were obtained.

IC50 [2]	Structure (SMILES)	ED50 [1]	further results
310 to 4800 nM	CCCOc1ccccc1-c1nc2nc(-c3ccccc3)[nH]c2c(=O)[nH]1 [Example 6, 2-(2-Propoxyphenyl)-8-phenylpurin-6-one]	0.58 to 7.24 µmol/kg	–
–	O=c1[nH]c2nc(-c3ccccc3OCC3CC3)[nH]c(=O)c2[nH]1 [Example 3, 2-(2-Cyclopropylmethoxyphenyl)purin-6,8-dione]	0.58 to 7.24 µmol/kg	% Inhibition of Control Bronchoconstrictor Response 30 min after drug administration ([3]; dose 18.4 μmol/kg i.v.): 24%
–	CCCOc1ccc([N+](=O)[O-])cc1-c1nc2nc[nH]c2c(=O)[nH]1 [Example 11, 2-(2-Propoxy-5-nitrophenyl)purin-6-one]	0.58 to 7.24 µmol/kg	–
310 to 4800 nM	CCCOc1ccccc1-c1nc2nc(S)[nH]c2c(=O)[nH]1 [Example 8, 2-(2-Propoxyphenyl)-8-mercaptopurin-6-one]	–	–
–	CCCOc1ccc(OC)cc1-c1nc2nc[nH]c2c(=O)[nH]1 [Example 14, 2-(2-Propoxy-5-methoxyphenyl)purin-6-one]	0.58 to 7.24 µmol/kg	–
–	CCCOc1ccc(Cl)cc1-c1nc2nc[nH]c2c(=O)[nH]1 [Example 15, 2-(2-Propoxy-5-chlorophenyl)purin-6-one]	0.58 to 7.24 µmol/kg	% Inhibition of Control Bronchoconstrictor Response 30 min after drug administration ([3]; dose 16.6 μmol/kg i.v.): 30%
310 to 4800 nM	CCCOc1ccccc1-c1nc2nc(SC)[nH]c2c(=O)[nH]1 [Example 9, 2-(2-Propoxyphenyl)-8-methylthiopurin-6-one]	–	–
–	O=c1[nH]c(-c2ccccc2OCC2CC2)nc2nc[nH]c12 [Example 2, 2-(2-Cyclopropylmethoxyphenyl)purin-6-one]	0.58 to 7.24 µmol/kg	–

Reference: patent US5073559A, “2-Substituted purinone having phosphodiesterase inhibitory activity” (Smith Kline & French Laboratories, Ltd., priority 1988, dated 1991)
